ChEMBL document CHEMBL1250451, “Mechanistic insights into a Ca2+-dependent family of alpha-mannosidases in a human gut symbiont” (Nat Chem Biol, 2010)
The source made the active and inactive calls. No cut-off for these calls is given here.

How the values were obtained:
Format in all cases: protein assay
[1] = molecular target: T1, Alpha-1,2-mannosidase (BT_3527) (Bacteroides thetaiotaomicron) (UniProt Q8A1Y1); assay: Activity of Bacteroides thetaiotaomicron GH92 alpha-mannosidase GH92 alpha-mannosidase 3527 assessed as mannose release at 1 mM after 16 hrs by HPLC relative to untreated control after 16 hrs by HPLC
T1 sequence (whole entry): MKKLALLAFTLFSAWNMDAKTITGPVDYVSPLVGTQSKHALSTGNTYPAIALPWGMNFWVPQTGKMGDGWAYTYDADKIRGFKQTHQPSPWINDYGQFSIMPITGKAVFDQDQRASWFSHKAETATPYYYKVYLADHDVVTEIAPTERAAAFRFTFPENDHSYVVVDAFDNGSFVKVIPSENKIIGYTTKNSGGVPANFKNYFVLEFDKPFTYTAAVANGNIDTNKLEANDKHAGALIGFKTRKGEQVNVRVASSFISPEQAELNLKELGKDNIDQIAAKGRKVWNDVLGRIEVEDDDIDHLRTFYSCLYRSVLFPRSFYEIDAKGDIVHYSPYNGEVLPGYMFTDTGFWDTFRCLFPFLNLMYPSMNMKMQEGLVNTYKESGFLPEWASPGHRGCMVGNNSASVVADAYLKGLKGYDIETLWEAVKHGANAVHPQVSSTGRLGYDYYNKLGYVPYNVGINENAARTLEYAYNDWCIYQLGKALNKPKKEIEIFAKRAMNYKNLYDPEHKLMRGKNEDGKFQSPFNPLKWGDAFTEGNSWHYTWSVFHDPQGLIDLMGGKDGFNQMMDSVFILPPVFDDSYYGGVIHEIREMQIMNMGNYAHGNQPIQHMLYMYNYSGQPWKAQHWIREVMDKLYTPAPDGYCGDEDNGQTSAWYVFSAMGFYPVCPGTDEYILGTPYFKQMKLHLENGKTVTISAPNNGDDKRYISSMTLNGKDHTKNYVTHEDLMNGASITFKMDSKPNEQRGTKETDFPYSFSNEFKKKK

[2] = molecular target: T2, Alpha-1,2-mannosidase (BT_3858) (Bacteroides thetaiotaomicron) (UniProt Q8A113); assay: Activity of Bacteroides thetaiotaomicron GH92 alpha-mannosidase GH92 alpha-mannosidase 3858 assessed as mannose release at 1 mM after 16 hrs by HPLC relative to untreated control after 16 hrs by HPLC
T2 sequence (whole entry): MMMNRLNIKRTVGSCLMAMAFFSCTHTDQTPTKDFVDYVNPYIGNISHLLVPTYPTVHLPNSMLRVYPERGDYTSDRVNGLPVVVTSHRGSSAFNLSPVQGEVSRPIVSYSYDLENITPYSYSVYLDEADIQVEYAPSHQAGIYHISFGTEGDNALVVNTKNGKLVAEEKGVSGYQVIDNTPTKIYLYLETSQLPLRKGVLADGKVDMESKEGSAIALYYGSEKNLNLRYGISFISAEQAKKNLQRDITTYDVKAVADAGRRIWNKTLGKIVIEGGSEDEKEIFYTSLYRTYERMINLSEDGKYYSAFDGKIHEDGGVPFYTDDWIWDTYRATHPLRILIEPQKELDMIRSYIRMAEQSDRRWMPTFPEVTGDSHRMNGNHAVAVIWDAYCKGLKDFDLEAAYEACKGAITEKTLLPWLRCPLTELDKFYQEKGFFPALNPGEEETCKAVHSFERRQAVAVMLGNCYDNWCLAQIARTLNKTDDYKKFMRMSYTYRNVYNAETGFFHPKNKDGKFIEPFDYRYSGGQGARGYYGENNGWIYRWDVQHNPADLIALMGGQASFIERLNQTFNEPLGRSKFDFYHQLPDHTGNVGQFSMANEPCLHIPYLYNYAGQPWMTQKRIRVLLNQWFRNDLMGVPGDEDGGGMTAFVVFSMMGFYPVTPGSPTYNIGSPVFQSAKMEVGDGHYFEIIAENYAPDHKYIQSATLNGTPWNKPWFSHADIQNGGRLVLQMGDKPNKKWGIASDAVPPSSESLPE

[3] = molecular target: T3, Alpha-1,2-mannosidase (BT_1878) (Bacteroides thetaiotaomicron) (UniProt Q8A6K3); assay: Activity of Bacteroides thetaiotaomicron GH92 alpha-mannosidase GH92 alpha-mannosidase 1878 assessed as mannose release at 1 mM after 16 hrs by HPLC relative to untreated control after 16 hrs by HPLC
T3 sequence (whole entry): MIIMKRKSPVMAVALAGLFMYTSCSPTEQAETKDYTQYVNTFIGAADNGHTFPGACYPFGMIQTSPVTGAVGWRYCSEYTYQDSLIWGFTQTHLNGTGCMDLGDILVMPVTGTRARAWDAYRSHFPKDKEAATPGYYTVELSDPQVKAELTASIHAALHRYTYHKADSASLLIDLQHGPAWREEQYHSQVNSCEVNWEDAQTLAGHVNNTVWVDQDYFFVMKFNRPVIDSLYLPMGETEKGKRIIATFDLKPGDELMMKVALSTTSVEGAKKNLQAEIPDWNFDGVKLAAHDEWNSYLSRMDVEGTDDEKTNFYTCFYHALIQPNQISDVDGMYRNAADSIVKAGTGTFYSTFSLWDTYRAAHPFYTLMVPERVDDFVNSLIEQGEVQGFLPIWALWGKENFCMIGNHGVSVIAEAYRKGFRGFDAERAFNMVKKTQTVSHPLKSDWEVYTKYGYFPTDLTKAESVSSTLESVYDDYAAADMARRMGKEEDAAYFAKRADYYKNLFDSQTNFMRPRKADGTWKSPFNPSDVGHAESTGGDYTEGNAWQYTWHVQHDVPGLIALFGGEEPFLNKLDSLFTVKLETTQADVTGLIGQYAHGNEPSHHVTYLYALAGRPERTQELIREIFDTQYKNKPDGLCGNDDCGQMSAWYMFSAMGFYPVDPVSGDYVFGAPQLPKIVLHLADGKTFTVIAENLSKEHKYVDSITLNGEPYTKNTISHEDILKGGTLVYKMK

Activity [1]	Activity [2] [%]	Activity [3] [%]	SMILES
inactive	0.0025	1.1	OC[C@H]1O[C@H](OC[C@H]2O[C@H](O)[C@@H](O)[C@@H](O)[C@@H]2O)[C@@H](O)[C@@H](O)[C@@H]1O
inactive	0.045	4.5	OC[C@H]1O[C@H](O[C@H]2[C@@H](O)[C@H](O)[C@@H](CO)O[C@@H]2O)[C@@H](O)[C@@H](O)[C@@H]1O
inactive			OC[C@H]1O[C@H](O[C@@H]2[C@H](O)[C@@H](O)O[C@H](CO)[C@H]2O)[C@@H](O)[C@@H](O)[C@@H]1O
inactive	0.1	3.6	OC[C@H]1O[C@H](O[C@H]2[C@H](O)[C@H](O)[C@@H](O)O[C@@H]2CO)[C@@H](O)[C@@H](O)[C@@H]1O
